Laboratory results reported in patent US11091511B2, “Panaxdiol-type ginsenoside derivative, preparation method therefor and use thereof” (ARMY MEDICAL UNIVERSITY, priority 2016, dated 2021).
Marks after values point to notes of the source that are not given here.

Assays:
RAW264.7 cells = assay: RAW264.7 cell survival rate by CCK8 method; type: cell-based, mouse; conditions: compound 10 prnol/L, 0.1% DMSO, CCK8, x ± s, n = 3, normal saline control = 1
Method: In order to further verify the toxicities of the compounds prepared in Examples 1-30 of the present invention, the mouse macrophage cell line RAW264.7 was cultured, and the compounds prepared in Examples 1-30 of the invention were prepared to a concentration of […] using culture medium, wherein the solvent was normal saline, the co-solvent was dimethyl sulfoxide (DMSO, the final concentratoin was 0.1%), and a 0.1% DMSO saline control group was provided. The cell survival rate was determined by CCK8 method. The data were expressed as x±s. SPSS 10.0 line single-factor analysis of variance was performed among groups. The difference was significant when p<0.05.

apoE−/− mice [1] = assay: Atherosclerotic plaque area to total aortic area in apoE-/- mice on high-fat diet (Sudan IV staining); type: in vivo, mouse; conditions: intragastric 15 weeks, compounds 30 mg/(kg·d), simvastatin 10 mg/(kg·d), x ± s, n = 5, saline control 14.67 ± 3.58
Text: The effects of the compounds prepared in Examples 1-30 of the present invention on the percentages of areas of atherosclerotic plaque formation to the area of the entire artery in apoE−/− mice with a high-fat diet and the levels of low-density lipoprotein cholesterol and the levels of high-density lipoprotein, the specific steps are as follows: 1. animals: 160 ten-week-old, healthy and clean-grade apoE−/− mice (purchased from Peking University Experimental Animal Center), males, weight: 22-25 g, were housed in separate cages in a sterile laminar feeding room and fed freely. The mice were fed by a high-fat diet (conventional feed+0.15% cholesterol+21% lard) for 25 weeks, the room temperature was kept at 24° C., relative humidity: 50%, illumination time 7:30-19:30. 2. Grouping, administration method: after 10 weeks of feeding, the animals were divided into the following 32 groups (n=5) by weight in a balanced and random manner, and killed 15 weeks after administration. Normal saline control group: normal saline, intragastric administration. Positive control group: simvastatin 10 mg/(kg·d), intragastric administration. The compound groups prepared in Examples 1-30 of the present invention (30 groups in total): each was intragastric administered 30 mg/(kg·d). (1) Analysis of the area of atherosclerotic plaque and its percentage to total area: after the animals were killed, the aortas were separated, from the roots of the aortas to the terminal bifurcations of the abdominal aortas. After formalin fixation, the aortas were stained with Sudan IV, the red stained parts were the areas of atherosclerotic lesions. The percentage of the area of the lesion area to total area was calculated using Image Pro Plus 5.0 software. Data were expressed as x±s, and SPSS 10.0 line single-factor analysis of variance was performed among groups, a significant difference was indicated when p<0.05.

apoE−/− mice [2] = assay: Blood lipids (LDL-C, HDL-C) in apoE-/- mice on high-fat diet; type: in vivo, mouse; conditions: apoE-/- mice serum, intragastric 15 weeks, compounds 30 mg/(kg·d), simvastatin 10 mg/(kg·d), x ± s; for HDL-C: n = 5, saline control 3.74 ± 0.62; for LDL-C: n = 5, saline control 7.33 ± 1.03
Text: The effects of the compounds prepared in Examples 1-30 of the present invention on the percentages of areas of atherosclerotic plaque formation to the area of the entire artery in apoE−/− mice with a high-fat diet and the levels of low-density lipoprotein cholesterol and the levels of high-density lipoprotein, the specific steps are as follows:
1. animals: 160 ten-week-old, healthy and clean-grade apoE−/− mice (purchased from Peking University Experimental Animal Center), males, weight: 22-25 g, were housed in separate cages in a sterile laminar feeding room and fed freely. The mice were fed by a high-fat diet (conventional feed+0.15% cholesterol+21% lard) for 25 weeks, the room temperature was kept at 24° C., relative humidity: 50%, illumination time 7:30-19:30.
2. Grouping, administration method:
after 10 weeks of feeding, the animals were divided into the following 32 groups (n=5) by weight in a balanced and random manner, and killed 15 weeks after administration.
Normal saline control group: normal saline, intragastric administration.
Positive control group: simvastatin 10 mg/(kg·d), intragastric administration.
The compound groups prepared in Examples 1-30 of the present invention (30 groups in total): each was intragastric administered 30 mg/(kg·d).
(2) Determination of the levels of total cholesterol (TC), low-density cholesterol lipoprotein (LDL-C) and high-density lipoprotein cholesterol (HDL-C): using ROCHE 7060 automatic biochemical analyzer for the determination.
Data were expressed as x±s, and SPSS 10.0 line single-factor analysis of variance was performed among groups, a significant difference was indicated when p<0.05.

TNF-α = assay: Local TNF-α level in the arteries of apoE-/- mice (Millipore liquid phase chip); type: in vivo, mouse; conditions: high-fat diet, intragastric 15 weeks, compounds 30 mg/(kg·d), simvastatin 10 mg/(kg·d), x ± s, n = 5, saline control 25.58 ± 6.44
Text: The effects of the compounds prepared in Examples 1-30 of the present invention on the percentages of areas of atherosclerotic plaque formation to the area of the entire artery in apoE−/− mice with a high-fat diet and the levels of low-density lipoprotein cholesterol and the levels of high-density lipoprotein, the specific steps are as follows: 1. animals: 160 ten-week-old, healthy and clean-grade apoE−/− mice (purchased from Peking University Experimental Animal Center), males, weight: 22-25 g, were housed in separate cages in a sterile laminar feeding room and fed freely. The mice were fed by a high-fat diet (conventional feed+0.15% cholesterol+21% lard) for 25 weeks, the room temperature was kept at 24° C., relative humidity: 50%, illumination time 7:30-19:30. 2. Grouping, administration method: after 10 weeks of feeding, the animals were divided into the following 32 groups (n=5) by weight in a balanced and random manner, and killed 15 weeks after administration. Normal saline control group: normal saline, intragastric administration. Positive control group: simvastatin 10 mg/(kg·d), intragastric administration. The compound groups prepared in Examples 1-30 of the present invention (30 groups in total): each was intragastric administered 30 mg/(kg·d). (3) Determination of TNF-α level: Millipore liquid phase chip method was used for the determination (Mcytomag-70K-3, Mouse Cytokine/Chemokine Magnetic Bead Panel). Data were expressed as x±s, and SPSS 10.0 line single-factor analysis of variance was performed among groups, a significant difference was indicated when p<0.05.

[3] = test system: RAW264.7 cell-derived foam cells; assay: Formation of RAW264.7 cell-derived foam cells (ox-LDL, oil red O, absorbance 490 nm); type: cell-based, mouse; conditions: 48 hours, model group = 100%, x ± s, n = 3
Method: The effects of the compounds prepared in Examples 1-30 of the present invention on the formation of RAW264.7 cell-derived foam cells, the specific steps are as follows:
1. Cell culture and foam cell model establishment:
RAW264.7 cells were cultured in DMEM culture medium with high glucose level (GIBCO) to a cell concentration of 1×10^6, planted in a 6-well plate, and 60 mg/L of ox-LDL (oxidized modified low-density lipoprotein, Peking Union Medical College) was added, foam cells were obtained after 48 hours of incubation.
2. Grouping and index detection:
The obtained foam cells were divided into 61 groups, 3 well plates were included in one group. After the treatment by adding the drugs (100 μL/well) for 48 hours, the medium was discarded, and after oil red 0 staining, the excess amount of oil red 0 was washed away. The cells were dissolved in isopropanol and the absorbance values were measured at 490 nm. The OD value of the model group was 100%, and the OD value of each group corrected by the number of cells was compared with the model group to obtain the ratio of intracellular lipid content. The larger the value, the more intracellular lipids, the higher the degree of formation of foam cells.
Normal saline control group: normal saline
Low dose groups of the compounds prepared in Examples 1-30 of the present invention:
10 μmol/L (solvents were normal saline).
High dose groups of compounds prepared in Examples 1-30 of the present invention: 30 μmol/L (solvents were normal saline).
Data were expressed as x±s, and SPSS 10.0 line single-factor analysis of variance was performed amoung groups, a significant difference was indicated when p<0.05.

SMILES | Cell Survival Rate (RAW264.7 cells) | Plaque area/total aorta area (%) (apoE−/− mice [1]) | HDL-C (apoE−/− mice [2]) | LDL-C (apoE−/− mice [2]) | TNF-α level (ng/g) (TNF-α) | Foam cell formation (%) ([3]; dose 10 μmol/L) | Foam cell formation (%) ([3]; dose 30 μmol/L)
COC(=O)CC[C@H](NCCC[C@](C)(O[C@H]1O[C@H](COC(C)=O)[C@@H](OC(C)=O)[C@H](OC(C)=O)[C@H]1OC(C)=O)C1CC[C@]2(C)[C@@H]1C(OC(C)=O)CC1[C@@]3(C)CC[C@H](OC(C)=O)C(C)(C)C3CC[C@]12C)C(=O)OC (some centres unmarked) [Compound 8] | 0.82 ± 0.06 | 9.31 ± 3.58 ^a % | 5.63 ± 0.84 ^a mmol/L | 4.34 ± 1.19 ^a mmol/L | 12.67 ± 3.11 ^a ng/g | 73 ± 16 ^a % | 51 ± 17 ^a %
COC(=O)CNCCC[C@](C)(O[C@H]1O[C@H](COC(C)=O)[C@@H](OC(C)=O)[C@H](OC(C)=O)[C@H]1OC(C)=O)C1CC[C@]2(C)[C@@H]1C(OC(C)=O)CC1[C@@]3(C)CC[C@H](OC(C)=O)C(C)(C)C3CC[C@]12C (some centres unmarked) [Compound 9] | 0.85 ± 0.07 | 10.55 ± 2.19 ^a % | 4.41 ± 0.67 ^a mmol/L | 6.84 ± 0.85 mmol/L | 12.85 ± 4.17 ^a ng/g | 79 ± 23% | 65 ± 17 ^a %
CCOC(=O)CCNCCC[C@](C)(O[C@H]1O[C@H](COC(C)=O)[C@@H](OC(C)=O)[C@H](OC(C)=O)[C@H]1OC(C)=O)C1CC[C@]2(C)[C@@H]1C(OC(C)=O)CC1[C@@]3(C)CC[C@H](OC(C)=O)C(C)(C)C3CC[C@]12C (some centres unmarked) [Compound 10] | 0.82 ± 0.13 | 8.52 ± 3.25 ^a % | 4.50 ± 0.94 ^a mmol/L | 6.54 ± 1.06 mmol/L | 11.66 ± 2.65 ^a ng/g | 69 ± 18 ^a % | 45 ± 21 ^a %
CCOC(=O)C(NCCC[C@](C)(O[C@H]1O[C@H](COC(C)=O)[C@@H](OC(C)=O)[C@H](OC(C)=O)[C@H]1OC(C)=O)C1CC[C@]2(C)[C@@H]1C(OC(C)=O)CC1[C@@]3(C)CC[C@H](OC(C)=O)C(C)(C)C3CC[C@]12C)C(=O)OCC (some centres unmarked) [Compound 11] | 0.84 ± 0.12 | 9.68 ± 3.52 ^a % | 4.93 ± 0.58 ^a mmol/L | 6.59 ± 1.56 mmol/L | 12.33 ± 5.81 ^a ng/g | 72 ± 14 ^a % | 65 ± 15 ^a %
COC(=O)[C@H](Cc1ccccc1)NCCC[C@](C)(O[C@H]1O[C@H](COC(C)=O)[C@@H](OC(C)=O)[C@H](OC(C)=O)[C@H]1OC(C)=O)C1CC[C@]2(C)[C@@H]1C(OC(C)=O)CC1[C@@]3(C)CC[C@H](OC(C)=O)C(C)(C)C3CC[C@]12C (some centres unmarked) [Compound 12] | 0.87 ± 0.16 | 10.23 ± 3.54 ^a % | 4.44 ± 0.83 ^a mmol/L | 5.27 ± 1.74 ^a mmol/L | 18.27 ± 5.24 ^a ng/g | 84 ± 15% | 68 ± 21 ^a %
COC(=O)[C@@H](Cc1ccc(O)cc1)NCCC[C@](C)(O[C@H]1O[C@H](COC(C)=O)[C@@H](OC(C)=O)[C@H](OC(C)=O)[C@H]1OC(C)=O)C1CC[C@]2(C)[C@@H]1C(OC(C)=O)CC1[C@@]3(C)CC[C@H](OC(C)=O)C(C)(C)C3CC[C@]12C (some centres unmarked) [Compound 13] | 0.85 ± 0.12 | 9.44 ± 3.24 ^a % | 5.29 ± 1.18 ^a mmol/L | 5.07 ± 0.99 ^a mmol/L | 15.65 ± 6.74 ^a ng/g | 71 ± 14 ^a % | 47 ± 23 ^a %
COC(=O)[C@H](Cc1c[nH]cn1)NCCC[C@](C)(O[C@H]1O[C@H](COC(C)=O)[C@@H](OC(C)=O)[C@H](OC(C)=O)[C@H]1OC(C)=O)C1CC[C@]2(C)[C@@H]1C(OC(C)=O)CC1[C@@]3(C)CC[C@H](OC(C)=O)C(C)(C)C3CC[C@]12C (some centres unmarked) [Compound 14] | 0.83 ± 0.06 | 9.34 ± 3.01 ^a % | 4.39 ± 0.59 ^a mmol/L | 5.58 ± 1.11 ^a mmol/L | 16.92 ± 5.04 ^a ng/g | 78 ± 18 ^a % | 66 ± 16 ^a %
COC(=O)[C@H](CC1CNc2ccccc21)NCCC[C@](C)(O[C@H]1O[C@H](COC(C)=O)[C@@H](OC(C)=O)[C@H](OC(C)=O)[C@H]1OC(C)=O)C1CC[C@]2(C)[C@@H]1C(OC(C)=O)CC1[C@@]3(C)CC[C@H](OC(C)=O)C(C)(C)C3CC[C@]12C (some centres unmarked) [Compound 15] | 0.88 ± 0.04 | 10.22 ± 2.19 ^a % | 4.12 ± 0.82 ^a mmol/L | 6.54 ± 1.36 mmol/L | 16.07 ± 3.67 ^a ng/g | 68 ± 12 ^a % | 56 ± 22 ^a %
